In patent publication US20220081412A1, “QUINOLINYL-PYRAZINE-CARBOXAMIDE COMPOUNDS AND USES THEREOF” (The Regents of the University of Michigan, priority 2018, published 2022):

Test system: NCI60 cell lines
Assay: NCI60 cell line panel
Assay type: cell-based, human
Procedure: The Developmental Therapeutics Program (DTP) of NCI has evaluated more than 100,000 pure compounds and more than 34,000 crude extracts against the panel of human tumor cell lines. The resultant data are analyzed using a program called COMPARE, that rank the entire database of tested compounds in the order of the similarity of the responses. […] Thus, the NCI60 databases is highly useful to the cancer research community. Further experiments were conducted that tested some of the active compounds in a panel of NCI60 cell line to relate our compounds with some known inhibitors to have an idea of possible mechanism of action.
In order to understand the selectivity of these compounds in different cancer types, some of them were tested against a panel of 60 cell lines (Table XXXIX).

[1] = Non-Small Cell Lung Cancer, A549/ATCC
[2] = Non-Small Cell Lung Cancer, EKVX
[3] = Non-Small Cell Lung Cancer, HOP-62
[4] = Non-Small Cell Lung Cancer, HOP-92
[5] = Non-Small Cell Lung Cancer, NCI-H23
[6] = Non-Small Cell Lung Cancer, NCI-H226
[7] = Non-Small Cell Lung Cancer, NCI-H322M
[8] = Non-Small Cell Lung Cancer, NCI-H460
[9] = Non-Small Cell Lung Cancer, NCI-H522

## CCN(CC)CCCC(C)Nc1cnc(C(=O)Nc2cc(F)cc3cccnc23)cn1 (stereo not shown) [J17, 5-((5-(diethylamino)pentan-2-yl)amino)-N-(6-fluoroquinolin-8-yl)pyrazine-2-carboxamide]
Breast Cancer, BT-549
  GIPRCNT: % Growth inhibition: 77.38%
Breast Cancer, HS 578T
  GIPRCNT: % Growth inhibition: 69.28%
Breast Cancer, MCF7
  GIPRCNT: % Growth inhibition: 2.311%
Breast Cancer, MDA-MB-231/ATCC
  GIPRCNT: % Growth inhibition: 59.42%
Breast Cancer, MDA-MB-468
  GIPRCNT: % Growth inhibition: 6.238%
Breast Cancer, T-47D
  GIPRCNT: % Growth inhibition: 14.34%
CNS Cancer, SF-268
  GIPRCNT: % Growth inhibition: 51.93%
CNS Cancer, SF-295
  GIPRCNT: % Growth inhibition: 71.23%
CNS Cancer, SF-539
  GIPRCNT: % Growth inhibition: 83.12%
CNS Cancer, SNB-19
  GIPRCNT: % Growth inhibition: 83.09%
CNS Cancer, SNB-75
  GIPRCNT: % Growth inhibition: 65.6595%
CNS Cancer, U251
  GIPRCNT: % Growth inhibition: 50.2764%
Colon Cancer, COLO 205
  GIPRCNT: % Growth inhibition: 3.108%
Colon Cancer, HCC-2998
  GIPRCNT: % Growth inhibition: 66.69%
Colon Cancer, HCT-15
  GIPRCNT: % Growth inhibition: 24.5%
Colon Cancer, HCT-116
  GIPRCNT: % Growth inhibition: 9.52%
Colon Cancer, HT29
  GIPRCNT: % Growth inhibition: 11.8%
Colon Cancer, KM12
  GIPRCNT: % Growth inhibition: 75.34%
Colon Cancer, SW-620
  GIPRCNT: % Growth inhibition: 24.3%
Leukemia, CCRF-CEM
  GIPRCNT: % Growth inhibition: 19.66%
Leukemia, HL-60(TB)
  GIPRCNT: % Growth inhibition: 85.54%
Leukemia, K-562
  GIPRCNT: % Growth inhibition: 3.946%
Leukemia, MOLT-4
  GIPRCNT: % Growth inhibition: 21.9615%
Leukemia, RPMI-8226
  GIPRCNT: % Growth inhibition: 75.09%
Leukemia, SR
  GIPRCNT: % Growth inhibition: 2.839%
Melanoma, LOX IMVI
  GIPRCNT: % Growth inhibition: 33.27%
Melanoma, M14
  GIPRCNT: % Growth inhibition: 21.9%
Melanoma, MALME-3M
  GIPRCNT: % Growth inhibition: −8.343%
Melanoma, MDA-MB-435
  GIPRCNT: % Growth inhibition: 25.54%
Melanoma, SK-MEL-2
  GIPRCNT: % Growth inhibition: 96.72%
Melanoma, SK-MEL-5
  GIPRCNT: % Growth inhibition: 69.98%
Melanoma, UACC-62
  GIPRCNT: % Growth inhibition: 0.9972%
Melanoma, UACC-257
  GIPRCNT: % Growth inhibition: 76.77%
[1]
  GIPRCNT: % Growth inhibition: 58.01%
[2]
  GIPRCNT: % Growth inhibition: 73.3%
[3]
  GIPRCNT: % Growth inhibition: 64.08%
[4]
  GIPRCNT: % Growth inhibition: 37.52%
[5]
  GIPRCNT: % Growth inhibition: 81.37%
[6]
  GIPRCNT: % Growth inhibition: 85.09%
[7]
  GIPRCNT: % Growth inhibition: 63.8%
[8]
  GIPRCNT: % Growth inhibition: 69.55%
[9]
  GIPRCNT: % Growth inhibition: 52.69%
Ovarian Cancer, IGROV1
  GIPRCNT: % Growth inhibition: 41.74%
Ovarian Cancer, NCI/ADR-RES
  GIPRCNT: % Growth inhibition: 66.76%
Ovarian Cancer, OVCAR-3
  GIPRCNT: % Growth inhibition: 5.413%
Ovarian Cancer, OVCAR-4
  GIPRCNT: % Growth inhibition: 12.24%
Ovarian Cancer, OVCAR-5
  GIPRCNT: % Growth inhibition: 77.12%
Ovarian Cancer, OVCAR-8
  GIPRCNT: % Growth inhibition: 60.52%
Ovarian Cancer, SK-OV-3
  GIPRCNT: % Growth inhibition: 98.32%
Prostate Cancer, DU-145
  GIPRCNT: % Growth inhibition: 63.3%
Prostate Cancer, PC-3
  GIPRCNT: % Growth inhibition: 60.96%
Renal Cancer, 786-0
  GIPRCNT: % Growth inhibition: 68.3555%
Renal Cancer, A498
  GIPRCNT: % Growth inhibition: 62.97%
Renal Cancer, ACHN
  GIPRCNT: % Growth inhibition: 36.59%
Renal Cancer, CAKI-1
  GIPRCNT: % Growth inhibition: 36.66%
Renal Cancer, RXF 393
  GIPRCNT: % Growth inhibition: 33.77%
Renal Cancer, SN12C
  GIPRCNT: % Growth inhibition: 54.47%
Renal Cancer, TK-10
  GIPRCNT: % Growth inhibition: 63.68%
Renal Cancer, UO-31
  GIPRCNT: % Growth inhibition: 29.1%

## O=C(Nc1cc(F)cc2cccnc12)c1cnc(N2CCNCC2)cn1 [J44, N-(6-fluoroquinolin-8-yl)-5-(piperazin-1-yl)pyrazine-2-carboxamide]
Breast Cancer, BT-549
  GIPRCNT: % Growth inhibition: 82.22%
Breast Cancer, HS 578T
  GIPRCNT: % Growth inhibition: 71.77%
Breast Cancer, MCF7
  GIPRCNT: % Growth inhibition: 75.22%
Breast Cancer, MDA-MB-231/ATCC
  GIPRCNT: % Growth inhibition: 10.16%
Breast Cancer, MDA-MB-468
  GIPRCNT: % Growth inhibition: −5.124%
Breast Cancer, T-47D
  GIPRCNT: % Growth inhibition: 18.05%
CNS Cancer, SF-268
  GIPRCNT: % Growth inhibition: 77.45%
CNS Cancer, SF-295
  GIPRCNT: % Growth inhibition: 89.3%
CNS Cancer, SF-539
  GIPRCNT: % Growth inhibition: 85.5%
CNS Cancer, SNB-19
  GIPRCNT: % Growth inhibition: 87.74%
CNS Cancer, SNB-75
  GIPRCNT: % Growth inhibition: 82.71%
CNS Cancer, U251
  GIPRCNT: % Growth inhibition: 63.6%
Colon Cancer, COLO 205
  GIPRCNT: % Growth inhibition: 13.9%
Colon Cancer, HCC-2998
  GIPRCNT: % Growth inhibition: 85.58%
Colon Cancer, HCT-15
  GIPRCNT: % Growth inhibition: 40.52%
Colon Cancer, HCT-116
  GIPRCNT: % Growth inhibition: 11%
Colon Cancer, HT29
  GIPRCNT: % Growth inhibition: 36.78%
Colon Cancer, KM12
  GIPRCNT: % Growth inhibition: 81.24%
Colon Cancer, SW-620
  GIPRCNT: % Growth inhibition: 40.94%
Leukemia, CCRF-CEM
  GIPRCNT: % Growth inhibition: 26.31%
Leukemia, HL-60(TB)
  GIPRCNT: % Growth inhibition: 77.07%
Leukemia, K-562
  GIPRCNT: % Growth inhibition: 19.84%
Leukemia, MOLT-4
  GIPRCNT: % Growth inhibition: 24.48%
Leukemia, RPMI-8226
  GIPRCNT: % Growth inhibition: 93.13%
Leukemia, SR
  GIPRCNT: % Growth inhibition: 29.46%
Melanoma, LOX IMVI
  GIPRCNT: % Growth inhibition: 65.76%
Melanoma, M14
  GIPRCNT: % Growth inhibition: 86.06%
Melanoma, MALME-3M
  GIPRCNT: % Growth inhibition: 59.5595%
Melanoma, MDA-MB-435
  GIPRCNT: % Growth inhibition: 77.28%
Melanoma, SK-MEL-2
  GIPRCNT: % Growth inhibition: 104.1313%
Melanoma, SK-MEL-5
  GIPRCNT: % Growth inhibition: 97.38%
Melanoma, UACC-62
  GIPRCNT: % Growth inhibition: 88.004%
Melanoma, UACC-257
  GIPRCNT: % Growth inhibition: 91.12%
[1]
  GIPRCNT: % Growth inhibition: 88.1%
[2]
  GIPRCNT: % Growth inhibition: 82.71%
[3]
  GIPRCNT: % Growth inhibition: 85.24%
[4]
  GIPRCNT: % Growth inhibition: 49.09%
[5]
  GIPRCNT: % Growth inhibition: 83.43%
[6]
  GIPRCNT: % Growth inhibition: 100.3613%
[7]
  GIPRCNT: % Growth inhibition: 69.29%
[8]
  GIPRCNT: % Growth inhibition: 80.62%
[9]
  GIPRCNT: % Growth inhibition: 54.48%
Ovarian Cancer, IGROV1
  GIPRCNT: % Growth inhibition: 100.6006%
Ovarian Cancer, NCI/ADR-RES
  GIPRCNT: % Growth inhibition: 72.41%
Ovarian Cancer, OVCAR-3
  GIPRCNT: % Growth inhibition: 43.52%
Ovarian Cancer, OVCAR-4
  GIPRCNT: % Growth inhibition: 6.04%
Ovarian Cancer, OVCAR-5
  GIPRCNT: % Growth inhibition: 11.16%
Ovarian Cancer, OVCAR-8
  GIPRCNT: % Growth inhibition: 83.3637%
Ovarian Cancer, SK-OV-3
  GIPRCNT: % Growth inhibition: 87.6273%
Prostate Cancer, DU-145
  GIPRCNT: % Growth inhibition: 63.01%
Prostate Cancer, PC-3
  GIPRCNT: % Growth inhibition: 29.0295%
Renal Cancer, 786-0
  GIPRCNT: % Growth inhibition: 100.1067%
Renal Cancer, A498
  GIPRCNT: % Growth inhibition: 89.1%
Renal Cancer, ACHN
  GIPRCNT: % Growth inhibition: 88.67%
Renal Cancer, CAKI-1
  GIPRCNT: % Growth inhibition: 28.3672%
Renal Cancer, RXF 393
  GIPRCNT: % Growth inhibition: 52.45%
Renal Cancer, SN12C
  GIPRCNT: % Growth inhibition: 54.07%
Renal Cancer, TK-10
  GIPRCNT: % Growth inhibition: 74.98%
Renal Cancer, UO-31
  GIPRCNT: % Growth inhibition: 66.57%
